According to US20260091078A1, “OLIGOPEPTIDE THAT INHIBITS ANGIOGENESIS AND VASCULAR FUNCTION” (UNIVERSIDAD NACIONAL AUTONOMA DE MEXICO, priority 2019, published 2026):

Tests used:
[1] = test system: immortalized endothelial cells from the bovine umbilical vein (BUVEC E6E7); assay: Transwell Matrigel invasion of BUVEC E6E7 stimulated with VEGF; type: cell-based; conditions: BUVEC E6E7, 100 nM, VEGF 50 ng mL^-1, 24 hours
Method: (§1) Endothelial cells were seeded over 100 μl Matrigel™ matrix (380 ng μl^−1) on a permeable ‘transwell’ support in a transwell chamber having an area of 0.33 cm^2 and 8 μm of pore-diameter at a density of 30,000 and 14,000 cells cm^−2 for BUVEC E6E7 and HUVEC cells, respectively. In the upper (luminal) compartment the cells were maintained with starving media F12K having 0.1 or 0.5% FBS for BUVEC E6E7 and HUVEC, respectively. In addition, HUVEC cells were maintained with 100 μg ml^−1 heparin. […] After 24 hours the media from both compartments and the luminal cells were removed. The abluminal cells were fixed with 100% MeOH for 10 minutes, permeabilized with TBS1x-0.5% Triton X-100, and stained with Hoechst 33342. The total number of cells in the abluminal compartment indicates the invasive activity of endothelial cells.
(§2) The inhibitory effect of 100 nM of the oligopeptide THGRGFI on the invasion of immortalized endothelial cells from the bovine umbilical vein (BUVEC E6E7) (FIG. 3A) or primary cells from the human umbilical vein (HUVEC) (FIG. 3B) stimulated in each case with VEGF (50 ng mL^−1) was compared with the inhibitory effect of 100 nM of the 123 amino acid vasoinhibin (***P<0.001).

[2] = test system: primary cells from the human umbilical vein (HUVEC); assay: Transwell Matrigel invasion of HUVEC stimulated with VEGF; type: cell-based; conditions: 100 nM, VEGF 50 ng mL^-1, 24 hours
Method: as §1, §2

[3] = test system: interleukin-1α (IL-1α); assay: Expression of vasoinhibin target gene IL-1α mRNA in BUVEC E6E7 (qPCR); type: cell-based, bovine; conditions: BUVEC E6E7, 100 nM, 4 hours
Method: (§3) Vasoinhibin induces the expression of a variety of genes via the activation of NF-KB to promote angiostatic and inflammatory effects. In particular, interleukin-1 alpha (IL-1α) and the intercellular adhesion molecule 1 (ICAM1) are vasoinhibin gene targets in the bovine endothelial cells. To evaluate the ability of the oligopeptide […] to induce the expression of IL-1α and ICAM1, BUVEC […] cells were seeded on 12 well plates with F12K-10% FBS, grown to 80% confluency, and starved with low serum (0.1% FBS) culture medium for 24 h. […] After 4 hours the RNA was extracted from the cells using Trizol (Invitrogen, Carlsbad, CA) and retrotranscribed using the High Capacity cDNA Reverse Transcription Kit (Applied Biosystems, Foster City, CA). The RT-PCR products were quantified in a Maxima SYBRgreen qPCR (Thermo Fisher Scientific) 10 μl final volume reaction mixture containing the template and 0.25 μM of each primer. The PCR amplification was done in the CFX96 Real Time PCR (BioRad), comprising a 10-minute denaturalization at 95° C., followed by 35 amplification cycles (95° C. for 10 sec, 58° C. for 30 sec, and 72° C. for 30 sec). […] The PCR data was analyzed by the 2^-ΔΔCT method and the threshold of the cycles (CT) was normalized by the constitutive housekeeping gene cyclophilin A (PPIA). […]

[4] = test system: intracellular adhesion molecule 1 (ICAM1); assay: Expression of vasoinhibin target gene ICAM1 mRNA in BUVEC E6E7 (qPCR); type: cell-based, bovine; conditions: BUVEC E6E7, 100 nM, 4 hours
Method: as §3

[5] = test system: endothelial cell (BUVEC E6E7) monolayer; assay: Vasopermeability in vitro: transit of Evans blue linked albumin across endothelial monolayer; type: cell-based, bovine; conditions: 100 nM, 50 ng ml^-1 VEGF
Method: For evaluating if the oligopeptide THGRGFI conserves the inhibitory properties of vasoinhibin on vascular permeability, the transit of Evans blue linked albumin across an endothelial cell (BUVEC E6E7) monolayer was evaluated as follows:
BUVEC E6E7 cells were seeded over a transwell filter (pore of 0.4 μm) at a density of 10,000 cells cm^−2. After 3 days, the monolayers were starved with low serum (0.1 FBS) for 48 hours. Subsequently, 100 nM of the vasoinhibin or the oligopeptide of the present invention were added to the upper compartment (luminal part) of the transwell support, incubated for 1 hour, and followed by the addition of 50 ng ml^−1 of VEGF. Control (Ctl) was without VEGF, vasoinhibin and the oligopeptide. […] Samples of 50 μl of the abluminal compartment were collected and replaced by fresh PBS at 10, 20, 30 and 60 minutes. The absorbance (620 nm) was measured at all time points using a plate reader iMARK (BioRad). Absorbance values confirmed the transit of Evans blue labeled albumin across the endothelial monolayer.

[6] = test system: VEGF-induced retinal vasopermeability; assay: Vasopermeability in vivo: VEGF-induced retinal albumin extravasation (Evans blue method); conditions: Wistar rats, intravitreal, 20 μM with 300 ng VEGF, 24 hours
Method: For evaluating if the oligopeptide THGRGFI conserves the inhibitory properties of vasoinhibin on VEGF-induced vasopermeability in vivo, the effect of the intravitreal injection of VEGF alone or in combination with the oligopeptide or vasoinhibin in rats was determined.
Wistar rats were intravitreally injected with saline (control) or with 300 ng of VEGF in each case alone or in combination with 20 μM of the oligopeptide of the invention or with 20 μM of vasoinhibin. After 24 hours, the extravasation of albumin into the retina was evaluated using the Evans blue method. Briefly, 45 mg kg^−1 of total weight of the Evans blue dye was injected intravenously to anesthetized rats and was allowed to circulate for 2 hours. Then, the animals were perfused with ˜80 ml of PBS at a flow of ˜40 ml min^−1. The retinas were dissected, dried and incubated with 200 μl of formamide (Mallinckrodt Baker, Phillipsburg, NJ) at 72° C. and after 18 hours the labeled albumin was determined in the retinal extracts.

## Ac-THGRGFI-NH2 [THGRGFI, Thr His Gly Arg Gly Phe Ile]
[1]
  inhibition of invasion of endothelial cells: significatively inhibited
[2]
  inhibition of invasion of endothelial cells: significatively inhibited
[3]
  fold-change of expression of IL-1α mRNA versus non-treated control: ~30 fold
[4]
  fold-change of expression of ICAM1 mRNA versus non-treated control: ~13 fold
[5]
  inhibition of VEGF-induced endothelial permeability (Evans blue-albumin transit): inhibited the VEGF-induced increase in endothelial permeability
[6]
  inhibition of VEGF-induced retinal vasopermeability: blocks the VEGF increase in retinal vasopermeability
